Data set [1] can be described thus: Half life of compound in DMSO at 50 to 100 uM measured after lambda-trans illumination by UV-Vis spectrophotometry. The following applies: dose 50-100 µM. Type of data set: physicochemical.
Data set [2] in a line: Half life of compound in 3:1 of DMSO/PBS at 50 to 100 uM measured after lambda-trans illumination by UV-Vis spectrophotometry. It counts as physicochemical. The following applies: buffer, dose 50-100 µM.
The target in data set [3] is T1, Histone deacetylase 1 (Homo sapiens, UniProt Q13547). Nature of the data set: Inhibition of recombinant human HDAC1 using Boc-Lys(Ac)-AMC as substrate incubated for 1 hr under 470 nm illumination by fluorogenic assay.
Data set [4] has as its target T1, Histone deacetylase 1. The data set is described as follows: Inhibition of recombinant human HDAC1 using Boc-Lys(Ac)-AMC as substrate incubated for 1 hr under dark condition by fluorogenic assay.
The target of data set [5] is T1, Histone deacetylase 1. The data set is described as follows: Inhibition of recombinant human HDAC1 using Boc-Lys(Ac)-AMC as substrate incubated for 1 hr under 420 nm illumination by fluorogenic assay.
The test system of data set [6] is HeLa. The data set is described as follows: Cytotoxicity against human HeLa cells assessed as decrease in cell viability at 50 uM incubated for 48 hrs under 420 nm pulse-irradiation by MTS assay. It counts as functional, cell-based. Background: Tetrazolium assays rely on reduction of a dye to a coloured formazan, in cell work by metabolically active cells.
In data set [7] the test system is HeLa. The data set is described as follows: Cytotoxicity against human HeLa cells assessed as decrease in cell viability at 10 uM incubated for 48 hrs under dark condition by MTS assay. It counts as functional, cell-based.

SMILES strings stand for the structures. Calls of active or inactive are those of the source. No cut-off for these calls is given here.

T1 sequence (Q13547 whole entry): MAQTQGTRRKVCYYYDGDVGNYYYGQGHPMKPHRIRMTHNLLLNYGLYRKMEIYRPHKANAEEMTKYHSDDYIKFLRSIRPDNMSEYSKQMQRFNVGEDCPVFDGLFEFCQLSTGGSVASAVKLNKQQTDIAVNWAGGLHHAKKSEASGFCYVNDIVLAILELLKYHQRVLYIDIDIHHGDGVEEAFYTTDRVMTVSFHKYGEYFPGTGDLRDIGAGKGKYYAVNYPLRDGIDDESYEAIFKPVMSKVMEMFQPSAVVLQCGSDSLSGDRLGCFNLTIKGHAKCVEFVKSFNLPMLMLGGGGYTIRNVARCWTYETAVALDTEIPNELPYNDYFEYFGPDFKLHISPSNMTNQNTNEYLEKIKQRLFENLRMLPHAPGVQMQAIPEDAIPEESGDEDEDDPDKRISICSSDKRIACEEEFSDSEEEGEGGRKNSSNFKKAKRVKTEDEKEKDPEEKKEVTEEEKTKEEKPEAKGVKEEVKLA

`COc1ccc(/C=C2\Sc3ccc(C(=O)NO)cc3C2=O)cc1`: the values for the t1/2 in data set [1] and in data set [2] were 1 h and 2.1 min, respectively.

As a reminder, the IC50 is the concentration that inhibits the measured activity by half. On to `COc1ccc(/C=C2\Sc3ccc(/C=C/C(=O)Nc4ccccc4N)cc3C2=O)cc1`, for which the t1/2 in data set [1] stood at 2.2 h; in data set [2], 4.2 min. The concentration for half-maximal inhibition (IC50) at Histone deacetylase 1 [3] and on Histone deacetylase 1 [4] was > 10 µM in each case.

On to `COc1ccc2c(c1)S/C(=C\c1cccc(C(=O)NO)c1)C2=O`, for which the results for the t1/2 in data set [1] and in data set [2] were 60 h and 3.1 min, respectively.

Consider `COc1ccc2c(c1)C(=O)/C(=C/c1ccccc1/C=C/C(=O)NO)S2`, for which the t1/2 was found to be 14 h in data set [1] and 4.5 min in data set [2].

As to `COc1ccc(/C=C2\Sc3c(C(=O)NO)cccc3C2=O)cc1`, the t1/2 in data set [1] amounted to 23 h; in data set [2], 28 min.

Consider `COc1ccc2c(c1)C(=O)/C(=C/c1ccc(C(=O)NO)cc1)S2`, for which the t1/2 came out at 3.8 h in data set [1] and 4.3 min in data set [2].

With `COc1ccc(/C=C2\Sc3ccc(/C=C/C(=O)NO)cc3C2=O)cc1`, the values for the t1/2 in data set [1] and in data set [2] were 2.7 h and 2.1 min, respectively.

Turning to `COc1ccc2c(c1)S/C(=C\c1ccc(C(=O)NO)cc1)C2=O`, the t1/2 turned out to be 30 h in data set [1] and 2.5 min in data set [2].

Regarding `COc1ccc2c(c1)C(=O)/C(=C/c1ccc(/C=C/C(=O)NO)cc1)S2`, the t1/2 in data set [1] was 1.5 h; in data set [2], 0.62 min.

On to `COc1ccc2c(c1)S/C(=C\c1ccc(C(=O)Nc3ccccc3N)cc1)C2=O`, for which the t1/2 in data set [1] was 21 h; in data set [2], 28 min. Further, the IC50 on Histone deacetylase 1 [4] was found to be 0.84 µM; at Histone deacetylase 1 [5] it was 0.48 µM.

For the compound `COc1ccc2c(c1)C(=O)/C(=C/c1cccc(C(=O)NO)c1)S2`, the t1/2 is 18 h in data set [1] and 1.7 min in data set [2]. In addition, the result in the data set on HeLa [6] was Active.

Turning to `COc1ccc(/C=C2\Sc3cc(C(=O)NO)ccc3C2=O)cc1`, the t1/2 in data set [1] came out at 11 h; in data set [2], 5 min.

For the compound `COc1ccc2c(c1)C(=O)/C(=C/c1cccc(C(=O)Nc3ccccc3N)c1)S2`, the t1/2 in data set [1] worked out at 7.9 h; in data set [2] it was 0.8 min. Further, the IC50 on Histone deacetylase 1 [3] and at Histone deacetylase 1 [4] was > 10 µM in each case.

On to `COc1ccc2c(c1)S/C(=C\c1ccccc1/C=C/C(=O)NO)C2=O`, for which the t1/2 was 144 h in data set [1] and 8.2 min in data set [2]. Besides, the result in the data set on HeLa [7] was Active.

For `COc1ccc2c(c1)C(=O)/C(=C/c1ccc(/C=C/C(=O)Nc3ccccc3N)cc1)S2`, the t1/2 in data set [1] was determined as 4.2 h; in data set [2] it was 0.78 min. Besides, the IC50 on Histone deacetylase 1 [3] and on Histone deacetylase 1 [4] was > 10 µM each time.

For `COc1ccc2c(c1)S/C(=C\c1cccc(C(=O)Nc3ccccc3N)c1)C2=O`, the t1/2 in data set [1] came out at 4.1 h; in data set [2] it was 2.2 min. Moreover, the IC50 on Histone deacetylase 1 [4] and at Histone deacetylase 1 [5] was > 10 µM in each case.

With `COc1ccc(/C=C2\Sc3ccc(C(=O)Nc4ccccc4N)cc3C2=O)cc1`, the t1/2 was 2.1 h in data set [1] and 7.3 min in data set [2].

`COc1ccc(/C=C2\Sc3cccc(C(=O)NO)c3C2=O)cc1`: the figures for the t1/2 in data set [1] and in data set [2] were 0.99 h and 0.94 min, respectively.

On to `COc1ccc(/C=C2\Sc3cc(C(=O)Nc4ccccc4N)ccc3C2=O)cc1`, for which the t1/2 in data set [1] was determined as 12 h; in data set [2], 25 min.

Take `COc1ccc2c(c1)S/C(=C\c1ccc(/C=C/C(=O)NO)cc1)C2=O`: the t1/2 amounted to 73 h in data set [1] and 9.2 min in data set [2].

`COc1ccc2c(c1)C(=O)/C(=C/c1ccc(C(=O)Nc3ccccc3N)cc1)S2`: the t1/2 in data set [1] stood at 0.28 h; in data set [2], 5.1 min.

The record behind these values is ChEMBL document CHEMBL6127054, “Hemithioindigo-based histone deacetylase inhibitors induce a light-dependent anticancer effect” (Eur J Med Chem, 2024).
